What was measured:
Format in all cases: in vivo, Lewis rats
[1] = system: Experimental Autoimmune Neuritis (EAN) rats; experiment: EAN clinical (neurological) score, suppressive treatment
[2] = system: sciatic nerves of EAN rats; experiment: Luxol Fast Blue (LFB) staining, mean histological score of sciatic nerves of EAN rats; conditions: for Mean Histological Score: LFB staining, scale 0-3, sciatic nerves, Day 16
Description: (§1) To evaluate inflammatory cell infiltration and pathological changes in the PNS, five compound A-treated rats (at both concentrations) and five control EAN rats from Day 16 were sacrificed. Rats were deeply anaesthetized with ether and perfused intracardially with 4° C., 4% paraformaldehyde in PBS. Left and right sciatic nerves were quickly removed and post-fixed in 4% formaldehyde overnight at 4° C. Sciatic nerves were cut into two equally long segments, embedded in paraffin, serially sectioned (3 μm) and mounted on silan-covered slides.
The routine Luxol Fast Blue (LFB) staining was applied to show myelin. Histological changes between Compound A and control EAN rats were compared by an established semi-quantitative method. Briefly, four cross-sections from root and middle level of both sides of EAN rats were analyzed. All perivascular areas present in cross-sections were evaluated by two observers unaware of the treatment, and the degree of pathological alteration was graded semiquantitatively on the following scale: 0=normal perivascular area; 1=mild cellular infiltrate adjacent to the vessel; 2=cellular infiltration plus demyelination in immediate proximity to the vessel; and 3=cellular infiltration and demyelination throughout the section. Results were given as mean histological score (Hartung et al., 1988).

[3] = system: sciatic nerves of EAN rats; experiment: Immunohistochemistry of inflammatory cell infiltration in sciatic nerves of EAN rats; conditions: for Area of immunoreactivity/area of sciatic nerves (%) for B cells (OX22+) / Area of immunoreactivity/area of sciatic nerves (%) for Macrophages (ED1+) / Area of immunoreactivity/area of sciatic nerves (%) for T cells (W3/13+): Day 16, EAN rats
Description: as §1
After dewaxing, cross-sections of sciatic nerves were boiled (in a 600 W microwave oven) for 15 min in citrate buffer (2.1 g sodium citrate/L, pH 6). Endogenous peroxidase was inhibited with 1% H2O2 in methanol for 15 min. Sections were incubated with 10% normal pig serum (Biochrom, Berlin, Germany) to block non-specific binding of immunoglobulins and then with the following monoclonal antibodies: W3/13 (1:50; Serotec, Oxford, UK) for T lymphocytes, OX22 (1:200; Serotec, Oxford, UK) for B cells, ED1 for activated macrophages (1:100; Serotec, Oxford, UK). Antibody binding to tissue sections was visualized with biotinylated IgG F(ab)2 secondary antibody fragments (rabbit anti-mouse or rabbit anti-goat; 1:400; DAKO, Hamburg, Germany). Subsequently, sections were incubated with a Streptavidin-Avidin-Biotin complex (DAKO, Hamburg, Germany), followed by development with diaminobenzidine (DAB) substrate (Fluka, Neu-Ulm, Germany). Finally, sections were counterstained with Maier's Hemalum.
To evaluate immunostaining data, the percentages of areas of immunoreactivity (IR) to areas of sciatic nerve cross-sections were calculated. Images of sciatic nerve cross-sections were captured under 50× magnification using Nikon Coolscope (Nikon, Dusseldorf, Germany) with fixed parameters. Images were analyzed using MetaMorph Offline 7.1 (Molecular Devices, Toronto, Canada). Areas of IR were selected by colour threshold segmentation and all parameters were fixed for all images. Areas of sciatic nerve cross-sections were manually selected. For each EAN rat, four cross-sections from root and middle levels of both sides were analyzed. Results were given as arithmetic means of percentages of areas of IR to areas of sciatic nerve cross-sections and standard errors of means (SEM).

Body weight of EAN rats = experiment: Body weight of EAN rats
[4] = 3 mg/kg intragastric once daily
[5] = 10 mg/kg intragastric once daily

CCc1cc(/C(C)=N/OCc2ccc(C3CCCCC3)c(C(F)(F)F)c2)ccc1CN1CC(C(=O)O)C1 [Compound A, 1-{4-[1-(4-Cyclohexyl-3-trifluoromethyl-benzyloxyimino)-ethyl]-2-ethyl-benzyl}-azetidine-3-carboxylic acid]
Day of maximal neurological scores ([1]; days from immunisation, control maximum at Day 13): 15 Day
Day of full recovery of rats ([1]; days from immunisation, control recovered by Day 22): ≤ 19 days
Day at which (greatly reduced) neurological signs were seen ([1]; days from immunisation, oral once daily until Day 22, control onset Day 9): 14 Day
Effect on clinical signs of EAN (in words) ([1]; relative to the water/cmc vehicle, FIGS. 1A and 1B): almost prevented the development of clinical signs of EAN
Mean Histological Score ([2]; 3 mg/kg): 0.51
Mean Histological Score ([2]; 10 mg/kg): 0.25
Mean histological scores measured by LFB staining (in words) ([2]; Compound A-treated versus control EAN rats): markedly lower
Area of immunoreactivity/area of sciatic nerves (%) for B cells (OX22+) [3, 4]: 0.025%
Area of immunoreactivity/area of sciatic nerves (%) for Macrophages (ED1+) [3, 4]: 0.20%
Area of immunoreactivity/area of sciatic nerves (%) for T cells (W3/13+) [3, 4]: 0.08%
Area of immunoreactivity/area of sciatic nerves (%) for B cells (OX22+) [3, 5]: 0.021%
Area of immunoreactivity/area of sciatic nerves (%) for Macrophages (ED1+) [3, 5]: 0.11%
Area of immunoreactivity/area of sciatic nerves (%) for T cells (W3/13+) [3, 5]: 0.04%
Infiltration of T cells, B cells and macrophages in sciatic nerves (in words) ([3]; EAN rats, Day 16): significantly suppressed infiltration
Weight loss during disease (in words) (Body weight of EAN rats; higher dosage suspension (10 mg/kg), FIG. 2B): small weight loss between days 11 and 12, followed by weight gain
Weight loss during disease (in words) (Body weight of EAN rats; lower compound A suspension (3 mg/kg), Day 11 to 16, FIG. 2B): reduced level of weight loss
